# Test results as given in paper PMC7497412 (RSC Advances, 2020).
# Key:
# Assay in all cases: microbe, parasite or virus in culture
# Assay type in all cases: cell-based
# [1] = test system: M. tb R506/XDR; details: Mycobacterium tuberculosis, read-out: M. tb MIC R506/XDR
# [2] = test system: M. tb KZN494/MDR; details: Mycobacterium tuberculosis, read-out: M. tb MIC KZN494/MDR
# [3] = test system: M. tb V2475/MDR; details: Mycobacterium tuberculosis, read-out: M. tb MIC V2475/MDR
# [4] = test system: M. tb TF274/XDR; details: Mycobacterium tuberculosis, read-out: M. tb MIC TF274/XDR
SMILES,MIC [1] [µM],MIC [2] [µM],MIC [3] [µM],MIC [4] [µM]
"O=C(NC12CC3CC(CC(C3)C1)C2)c1cc(=O)c2c(Br)cccc2[nH]1 [8i, N-(1-Adamantanyl)-5-bromo-4-oxo-1,4-dihydroquinoline-2-carboxamide]",4.98,9.97,9.97,4.98
"O=C(NC1CCCCCCC1)c1ccc2ccccc2c1 [13c, N-Cyclooctyl-2-naphthamide]",3.55,7.11,7.11,3.55
"O=C(NC12CC3CC(CC(C3)C1)C2)c1ccc2ccccc2c1 [13d, N-(1-Adamantanyl)-2-naphthamide]",3.27,6.55 to 13.1,6.55,3.27
"O=C(Nc1nc(-c2ccc(Cl)cc2Cl)cs1)C12CC3CC(CC(C3)C1)C2 [18b, N-(4-(2,4-Dichlorophenyl)thiazol-2-yl)adamantane-1-carboxamide]",4.91 to 9.82,9.82,19.6,4.91
